Experimental findings from patent US20260265262A1, “CDK2 INHIBITORS AND METHODS OF USING THE SAME” (Cedilla Therapeutics, Inc., priority 2022, published 2026) are described below.

For test [1], the system named is Kuramochi cells. In words: IncuCyte cell proliferation assay. The test is classed as cell-based. The method in brief:
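Kuramochi cells expressing mApple-H2B were treated with a 10-point, ½-log dilution series (top 20 μM). Fluorescent nuclei were counted by IncuCyte imaging at 0 and 72 h. The fold change in cell count was normalized to DMSO wells and fitted to dose-response curves to give […].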

The target in test [2] is CDK2/Cyclin E1 (Homo sapiens, UniProt P24941). The experiment in a line: ADP-Glo Luminescent Kinase Assay (CDK2/E1-37C). Type of test: biochemical. The conditions noted are these: 0.18 nM CDK2/Cyclin E1, 100 μM ATP, 1.5 μM Histone H1, 37° C., 60 min pre-incubation. The method in brief: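 Human CDK2/Cyclin E1 preincubated with inhibitor 60 min at 37 °C, then reacted 90 min at 37 °C with final 0.18 nM enzyme, 100 μM ATP, 1.5 μM Histone H1 in HEPES pH 7.5 buffer. ADP formed read by ADP-Glo luminescence; IC50 from four-parameter fit.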
For orientation: ADP-Glo turns the ADP formed in a reaction into a luminescent signal.

Where [3] appears, read: Kuramochi cells labeled with mApple-H2B, cell count 0 to 72 hours, 20 μM top concentration, read-out: IncuCyte Kuramochi RB-WT: IC50.
[4] abbreviates: read-out: ADPGLO (CDK2/E1-37C): IC50.

Like-named read-outs stand apart in the source and are kept apart here. A value given as a limit tells only on which side of the number the result lay.

For `C[C@@H](OCC12CCC(CC1)OC2)[C@H](NC(=O)[C@@H]1CN(C(=O)c2cnn(Cc3ccccc3)c2)CC12CN(C(=O)C1(C(F)(F)F)CC1)C2)C(=O)N1CCC(c2nccs2)CC1` [Example I-69, (S)—N-((2S,3R)-3-(2-oxabicyclo[2.2.2]octan-4-ylmethoxy)-1-oxo-1-(4-(thiazol-2-yl)piperidin-1-yl)butan-2-yl)-6-(1-benzyl-1H-pyrazole-4-carbonyl)-2-(1-(trifluoromethyl)cyclopropanecarbonyl)-2,6-diazaspiro[3.4]octane-8-carboxamide], the IC50 is 0.5 to 5 µM in test [1] (setting [3]) and less than 0.5 µM in test [2] (setting [4]).

Consider `C[C@@H](OCC1CCOCC1)[C@H](NC(=O)C1CN(C(=O)c2cnn(Cc3ccc(C(F)(F)F)cc3)c2)CC12CN(C(=O)C1(C(F)(F)F)CC1)C2)C(=O)N1CCC(c2ccc(C(=O)O)cc2)CC1` (stereo in doubt) [I-64 2nd, 4-(1-(O-((tetrahydro-2H-pyran-4-yl)methyl)-N—((S)-6-(1-(4-(trifluoromethyl)benzyl)-1H-pyrazole-4-carbonyl)-2-(1-(trifluoromethyl)cyclopropane-1-carbonyl)-2,6-diazaspiro[3.4]octane-8-carbonyl)-L-threonyl)piperidin-4-yl)benzoic acid], for which the IC50 in test [1] (setting [3]) is greater than 20 µM; in test [2] (setting [4]), greater than 10 µM.

Take `C[C@@H](OCC12CCC(CC1)OC2)[C@H](NC(=O)[C@@H]1CN(C(=O)c2cnn(CC3CCNCC3)c2)CC12CN(C(=O)C1(C(F)(F)F)CC1)C2)C(=O)N1CCC(c2ccccc2C(=O)O)CC1` [Example I-101]: the IC50 in test [1] (setting [3]) is greater than 20 µM; in test [2] (setting [4]), 0.5 to 5 µM.

For `C[C@@H](OCC12CCC(CC1)OC2)[C@H](NC(=O)[C@@H]1CN(C(=O)c2cnn(Cc3ccc(C(F)(F)F)cc3)c2)CC12CN(C(=O)C1(C(F)(F)F)CC1)C2)C(=O)N1CCC(c2ccc(C(=O)O)cc2)CC1` [Example I-99], the IC50 is greater than 20 µM in test [1] (setting [3]) and less than 0.5 µM in test [2] (setting [4]).

In the case of `C[C@@H](OCC1(C(F)(F)F)CC1)[C@H](NC(=O)[C@@H]1CN(C(=O)c2cnn(Cc3ccc(C(F)(F)F)cc3)c2)CC12CN(C(=O)C1(C(F)(F)F)CC1)C2)C(=O)N1CCC(c2nccs2)CC1` [Example I-80, (S)—N-((2S,3R)-1-oxo-1-(4-(thiazol-2-yl)piperidin-1-yl)-3-((1-(trifluoromethyl)cyclopropyl)methoxy)butan-2-yl)-6-(1-(4-(trifluoromethyl)benzyl)-1H-pyrazole-4-carbonyl)-2-(1-(trifluoromethyl)cyclopropane-1-carbonyl)-2,6-diazaspiro[3.4]octane-8-carboxamide], the IC50 in test [1] (setting [3]) and in test [2] (setting [4]) was 0.5 to 5 µM in each case.

For `C[C@@H](OCC12CCC(CC1)OC2)[C@H](NC(=O)[C@@H]1CN(C(=O)c2cnn(Cc3ccc(C(F)(F)F)cc3)c2)CC12CN(C(=O)C1(C(F)(F)F)CC1)C2)C(=O)N1CCC(C#N)CC1` [Example I-25, (S)—N-((2S,3R)-3-((2-oxabicyclo[2.2.2]octan-4-yl)methoxy)-1-(4-cyanopiperidin-1-yl)-1-oxobutan-2-yl)-6-(1-(4-(trifluoromethyl)benzyl)-1H-pyrazole-4-carbonyl)-2-(1-(trifluoromethyl)cyclopropane-1-carbonyl)-2,6-diazaspiro[3.4]octane-8-carboxamide], the IC50 in test [1] (setting [3]) was greater than 20 µM; in test [2] (setting [4]) it was less than 0.5 µM.

For `COC(=O)[C@@H]1CN(C(=O)[C@@H](NC(=O)[C@@H]2CN(C(=O)c3cnn(Cc4ccc(C#N)cc4)c3)CC23CN(C(=O)C2(C(F)(F)F)CC2)C3)[C@@H](C)OCC23CCC(CC2)OC3)CCN1C(=O)OC(C)(C)C` [Example I-114], the IC50 in test [1] (setting [3]) was 5 to 20 µM; in test [2] (setting [4]) it was less than 0.5 µM.

On to `C[C@@H](OCC12CCC(CC1)OC2)[C@@H](COC1CCC(c2ccc(C(=O)O)cc2)CC1)NC(=O)[C@@H]1CN(C(=O)c2cnn(Cc3ccc(C(F)(F)F)cc3)c2)CC12CN(C(=O)C1(C(F)(F)F)CC1)C2` (stereo partly drawn) [Example I-86, 4-(4-((2R,3R)-3-(2-oxabicyclo[2.2.2]octan-4-ylmethoxy)-2-((S)-6-(1-(4-(trifluoromethyl)benzyl)-1H-pyrazole-4-carbonyl)-2-(1-(trifluoromethyl)cyclopropanecarbonyl)-2,6-diazaspiro[3.4]octane-8-carboxamido)butoxy)cyclohexyl)benzoic acid], for which the IC50 in test [1] (setting [3]) is greater than 20 µM; in test [2] (setting [4]) it was 0.5 to 5 µM.

For `C[C@@H](OCC12CCC(CC1)OC2)[C@H](NC(=O)[C@@H]1CN(C(=O)c2cnn(Cc3ccc(C(F)(F)F)cc3)c2)CC12CN(C(=O)C1(C(F)(F)F)CC1)C2)C(=O)N1CCC(c2nccs2)CC1` [Example I-91, (S)—N-((2S,3R)-3-(2-oxabicyclo[2.2.2]octan-4-ylmethoxy)-1-oxo-1-(4-(thiazol-2-yl)piperidin-1-yl)butan-2-yl)-6-(1-(4-(trifluoromethyl)benzyl)-1H-pyrazole-4-carbonyl)-2-(1-(trifluoromethyl)cyclopropanecarbonyl)-2,6-diazaspiro[3.4]octane-8-carboxamide], the IC50 in test [1] (setting [3]) is 0.5 to 5 µM; in test [2] (setting [4]), less than 0.5 µM.

Regarding `CNC(=O)[C@@H](NC(=O)[C@@H]1CN(C(=O)c2cncs2)CC12CN(CC1CCCO1)C2)[C@@H](C)OCC12CCC(CC1)OC2` (stereo partly shown) [Example I-48], the IC50 is greater than 20 µM in test [1] (setting [3]) and 5 to 10 µM in test [2] (setting [4]).

Take `CCOC(=O)CN(CC1CCCCC1)[C@H]1CCCN(C(=O)[C@@H]2CN(C(=O)c3cncs3)CC23CN(C(=O)[C@H]2CC2(C)C)C3)C1` [Example I-74]: the results for the IC50 in test [1] (setting [3]) and in test [2] (setting [4]) were greater than 20 µM and 5 to 10 µM, respectively.

On to `CC1(C)C[C@@H]1C(=O)N1CC2(CN(C(=O)c3cncs3)C[C@H]2C(=O)N2CCN(CC3CCCCC3)C(CC(=O)NS(C)(=O)=O)C2)C1` (single isomer, unassigned) [Example I-95], for which the results for the IC50 in test [1] (setting [3]) and in test [2] (setting [4]) were greater than 20 µM and greater than 10 µM, respectively.

Turning to `C[C@@H](OCC12CCC(CC1)OC2)[C@H](NC(=O)[C@@H]1CN(C(=O)c2cnc(O)cn2)CC12CN(C(=O)C1(C(F)(F)F)CC1)C2)C(=O)N1CCC(c2ccc(C(F)(F)F)c(C(=O)O)c2)CC1` [Example I-63], the IC50 in test [1] (setting [3]) was greater than 20 µM; in test [2] (setting [4]), less than 0.5 µM.

Take `C[C@@H](OCC12CCC(CC1)OC2)[C@H](NC(=O)[C@@H]1CN(C(=O)c2cnn(Cc3ccc(C(F)(F)F)cc3)c2)CC12CN(C(=O)C1(C(F)(F)F)CC1)C2)C(=O)N1CCC(c2ccc(C(=O)O)cc2)CC1` [Example I-12]: the IC50 in test [1] (setting [3]) is greater than 20 µM; in test [2] (setting [4]), less than 0.5 µM.

As to `COC(=O)CCNC(=O)[C@@H](NC(=O)[C@@H]1CN(C(=O)c2cnn(Cc3ccc(F)cc3C(F)(F)F)c2)CC12CN(C(=O)C1(C(F)(F)F)CC1)C2)[C@@H](C)OCC12CCC(CC1)OC2` [Example I-110, Methyl 3-((2S,3R)-3-((2-oxabicyclo[2.2.2]octan-4-yl)methoxy)-2-((S)-6-(1-(4-fluoro-2-(trifluoromethyl)benzyl)-1H-pyrazole-4-carbonyl)-2-(1-(trifluoromethyl)cyclopropane-1-carbonyl)-2,6-diazaspiro[3.4]octane-8-carboxamido)butanamido)propanoate], the IC50 in test [1] (setting [3]) is greater than 20 µM; in test [2] (setting [4]), 0.5 to 5 µM.

`C[C@@H](OCC1CCCCC1)[C@H](NC(=O)[C@@H]1CN(C(=O)c2cnn(Cc3ccccc3)c2)CC12CN(C(=O)[C@H]1CC1(C)C)C2)C(=O)NS(C)(=O)=O` [Example I-18]: the IC50 in test [1] (setting [3]) was greater than 20 µM; in test [2] (setting [4]) it was less than 0.5 µM.

`C[C@@H](OCC12CCC(CC1)OC2)[C@H](NC(=O)[C@@H]1CN(C(=O)c2cncs2)CC12CN(C(=O)C1(C(F)(F)F)CC1)C2)C(=O)N1CCC(c2nccs2)CC1` [Example I-34, (S)—N-((2S,3R)-3-((2-oxabicyclo[2.2.2]octan-4-yl)methoxy)-1-oxo-1-(4-(thiazol-2-yl)piperidin-1-yl)butan-2-yl)-6-(thiazole-5-carbonyl)-2-(1-(trifluoromethyl)cyclopropane-1-carbonyl)-2,6-diazaspiro[3.4]octane-8-carboxamide]: the IC50 was 0.5 to 5 µM in test [1] (setting [3]) and less than 0.5 µM in test [2] (setting [4]).

As for `C[C@@H](OCC12CCC(CC1)OC2)[C@H](NC(=O)[C@@H]1CN(C(=O)c2cnn(Cc3ccccc3)c2)CC12CN(C(=O)C1(C(F)(F)F)CC1)C2)C(=O)N1CCN(c2ccc(C(=O)O)cc2)CC1` [Example I-87, 4-(4-(O-((2-oxabicyclo[2.2.2]octan-4-yl)methyl)-N—((S)-6-(1-benzyl-1H-pyrazole-4-carbonyl)-2-(1-(trifluoromethyl)cyclopropane-1-carbonyl)-2,6-diazaspiro[3.4]octane-8-carbonyl)-L-threonyl)piperazin-1-yl)benzoic acid], the values for the IC50 in test [1] (setting [3]) and in test [2] (setting [4]) were 5 to 20 µM and less than 0.5 µM, respectively.

Consider `C[C@@H](OCC12CCC(CC1)OC2)[C@H](NC(=O)[C@@H]1CN(C(=O)c2cnn(Cc3ccc(C(F)(F)F)cc3)c2)CC12CN(C(=O)C1(C(F)(F)F)CC1)C2)C(=O)N1CCC(c2ccccc2C(=O)O)CC1` [Example I-3, 2-(1-(O-((2-oxabicyclo[2.2.2]octan-4-yl)methyl)-N—((S)-6-(1-(4-(trifluoromethyl)benzyl)-1H-pyrazole-4-carbonyl)-2-(1-(trifluoromethyl)cyclopropane-1-carbonyl)-2,6-diazaspiro[3.4]octane-8-carbonyl)-L-threonyl)piperidin-4-yl)benzoic acid], for which the IC50 in test [1] (setting [3]) was 0.5 to 5 µM; in test [2] (setting [4]) it was less than 0.5 µM.

In the case of `COP(=O)(CCNC(=O)[C@@H](NC(=O)[C@@H]1CN(C(=O)c2cnn(Cc3ccccc3)c2)CC12CN(C(=O)[C@H]1CC1(C)C)C2)[C@@H](C)OCC1CCCCC1)OC` [Example I-27], the figures for the IC50 in test [1] (read-out: IncuCyte Kuramochi RB-WT: IC50 (μM)) and in test [2] (ADPGLO (CDK2/E1-37C): IC50 (μM)) were 0.5 to 5 µM and less than 0.5 µM, respectively.
